Measured values reported in paper PMC9751883, “Discovery of new potent lysine specific histone demythelase-1 inhibitors (LSD-1) using structure based and ligand based molecular modelling and machine learning” (RSC Advances, 2022).
Read-outs that look alike come from different tables or passages of the source.

Legend:
LSD-1 = target: T1, LSD-1 (Homo sapiens, UniProt O60341); assay: fluorometric LSD-1 enzymatic assay (Cayman kit); type: biochemical; details: for IC50: read-out: IC50 LSD-1 enzyme
T1 construct: purchased Cayman Chemical-USA 700120
Procedure: Briefly, the assay is based on a multistep enzymatic reaction in which LSD-1 first produces H2O2 during the demethylation of lysine 4 on a peptide corresponding to the first 21 amino acids of the N-terminal tail of histone H3. In the presence of horseradish peroxidase (HRP), H2O2 reacts with ADHP (10-acetyl-3,7-dihydroxyphenoxazine) to produce the highly fluorescent compound resorufin. Resorufin fluorescence was analysed with an excitation wavelength 530–540 nm and an emission wavelength of 585–595 nm. […] The procedure proceeds through the following steps: (i) prepare 100% initial activity wells by adding 120 μl of assay buffer, 20 μl of LSD1, 20 μl of HRP, 10 μl of ADHP, and 10 μl of DMSO to three wells. […] (iv) Initiate the reactions by adding 20 μl of substrate peptide to all the wells being used, except the background wells. (v) Cover the plate with the plate cover and incubate for 30 minutes at 37 °C. (vi) Remove the plate cover and read the plate using an excitation wavelength of 530–540 nm and an emission wavelength of 585–595 nm. (vii) Determine the average fluorescence of each sample. (viii) Subtract the fluorescence of the background wells from the fluorescence of the 100% initial activity and the inhibitor wells. (ix) Determine the percent inhibition for each sample. To do this, subtract each inhibitor sample value from the 100% initial activity sample value.

[1] = tested on: pancreatic carcinoma Panc-1 cells; assay: MTT cytotoxicity against Panc-1 cells; type: cell-based; details: for SI: selectivity index in comparison with SH-SY5Y cells, Panc-1: Panc-1 vs SH-SY5Y
Procedure: (§1) The anticancer effects of captured hits were evaluated against SH-SY5Y (Neuroblastoma, CRL-2266), Panc-1 (pancreatic carcinoma, CRL-1469) and U-87 MG (glioblastoma, HTB-14) cells. Details about growth conditions, cell harvesting and counting are available in ESI Sections SM12–SM14. ^† The cancer killing profiles of tested compounds were evaluated colorimetrically using the Cell Titer Non-Radioactive Cell Proliferation Assay Kit® (Promega, USA) based on the reduction of a yellow tetrazole, 3-(4,5-Dimethylthiazol-2-yl)-2, 5-diphenyl tetrazolium bromide (MTT), to a purple formazan, a process that takes place in the mitochondria of viable cells (details are in ESI Sections SM12–SM14 ^†).[98,99]
(§2) Panc-1 and U-87 MG cells were used to probe LSD-1 inhibition by candidate inhibitors.[119,120] However, testing against HDF is aimed at evaluating the selective cytotoxicities of hits.

[2] = tested on: glioblastoma U-87 MG cells; assay: MTT cytotoxicity against U-87 MG cells; type: cell-based
Procedure: as §1, §2

[3] = tested on: normal human dermal fibroblasts (HDF); assay: cytotoxicity against normal human dermal fibroblasts; type: cell-based; details: for SI: selectivity index in comparison with SH-SY5Y cells, HDF: HDF vs SH-SY5Y
Description: However, testing against HDF is aimed at evaluating the selective cytotoxicities of hits.

[4] = tested on: neuroblastoma SH-SY5Y cells; assay: MTT cell viability assay on SH-SY5Y cells; type: cell-based; details: for Experimental % inhibition Without verapamil At 50 μM: 72 h; for IC50: read-out: In vitro IC50
Procedure: as §1
As SH-SY5Y cells highly express ATP binding cassette subfamily B member 1 (ABCB1, MDR1, normalized expression, NX: 36.8%),[100] cell resistance were reversed using verapamil (10 μM), which was added with each hit, and incubated with cells for 72 hours for subsequent MTT viability assay.[101,102] Finally, MTT cell proliferation assay results were analysed using GraphPad Prism 8.0 (GraphPad Software, Inc). […] Measurements were repeated in triplicates.
• MTT Cell Proliferation Assay
Inhibitory effect of the hits on SH-SY5Y cells were evaluated by a colorimetric method of CellTiter Non-Radioactive Cell Proliferation Assay Kit® (Promega, USA), based on the reduction of a yellow tetrazole, 3-(4,5-Dimethylthiazol-2-yl)-2, 5-diphenyl tetrazolium bromide (MTT), to a purple formazan, a process that take place in the mitochondria of viable cells.
Briefly, the cells were seeded onto 96-well plates (Greiner, Germany) at a concentration of 2×10^4 cells/well and incubated for 24 hours through which cells are attached to the walls of the wells.
Subsequently, hits under concern were screened on 50 µM and 10 µM concentrations (100 μL/ well). Each concentration was added in triplicates, and every plate contained a control of cells in plain medium. The cells were then incubated at 37 °C for 72 hours. After incubation, the media were aspirated from the wells and replaced by fresh media (100 μL/ well), and 15 µl MTT dye solution. The plates were incubated at 37 °C for four hours, and then 50 μL of solublization/stop solution was added to each well. Optical density (OD) at 560 nm wavelength was recorded one hour later using a 96-well plate reader (GloMax, Promega).
• Reversal of SH-SY5Y resistance by verapamil
As SH-SY5Y cells are highly expressing ATP binding cassette subfamily B member 1 (ABCB1, MDR1) (Normalized expression, NX: 36.8%) 100, cell resistance were reversed using 10 µM concentration of verapamil added with each hit and incubated with cells for 72 hours for subsequent MTT viability assay 101,102.

| SMILES | % Inhibition at 10 μM LSD-1 enzyme (LSD-1) | % Inhibition at 10 μM Panc-1 [1] | % Inhibition at 10 μM U-87 MG [2] | % Inhibition at 10 μM HDF [3] | HS (hill Slope) LSD-1 enzyme (LSD-1) | IC50 (LSD-1) | IC50 [1] | IC50 [2] | other results |
| --- | --- | --- | --- | --- | --- | --- | --- | --- | --- |
| N=C(N)c1ccc(OCCCCCCOc2ccc(C(=N)N)cc2)cc1 [Cpd 288] | 18% | 41% | 47% | 35% |  |  |  |  |  |
| N=C(N)c1ccc(OCCCCCCOc2ccc(C(=N)N)cc2I)cc1 [Hit 304] |  |  |  |  | 0.68 | 0.61 ± 0.12 µM | 3.85 ± 0.27 µM | 7.27 ± 0.67 µM | Experimental % inhibition Without verapamil At 50 μM ([4]; without verapamil): 88.87%; IC50 ([4]; in presence of verapamil (10 μM)): 0.37 ± 0.02 µM |
| COc1cccc2c1C(=O)c1c(O)c3c(c(O)c1C2=O)C[C@@](O)(C(=O)CO)C[C@@H]3O[C@H]1C[C@H](N)[C@H](O)[C@H](C)O1 [Doxorubicin, reference compound] |  |  |  |  |  |  |  |  | inhibition at 10 µM ([4]; Homo sapiens, read-out: Experimental % inhibition At 10 μM (column 6, head as shown: With verapamil), 72 h, 10 μM): 91%; IC50 ([4]; Homo sapiens, without verapamil): 0.6 µM; IC50 ([1]; Homo sapiens, PANC-1): 1.38 µM; inhibition at 10 µM ([1]; Homo sapiens, PANC-1): 76%; IC50 ([2]; Homo sapiens, U-87 MG): 1.37 µM; inhibition at 10 µM ([2]; Homo sapiens, U-87 MG): 86% |
| COc1cccc2c1C(=O)c1c(O)c3c(c(O)c1C2=O)CC(O)(C(C)=NNC(=O)CO)CC3OC1CC(N)C(O)C(C)O1 (centres unmarked) [Hit 298] |  |  |  |  | 0.36 | 0.21 ± 0.56 µM | 0.74 ± 0.09 µM | 0.93 ± 0.12 µM | Experimental % inhibition Without verapamil At 50 μM ([4]; without verapamil): 86.99%; IC50 ([4]; without verapamil): 0.03 µM |
| CCCCOCCCNCC(=O)Nc1ccc(S(=O)(=O)c2ccc(NC(=O)CNCCCOCCCC)cc2)cc1 [Cpd 287] | 96% | 39% | 15% | 7% |  |  |  |  |  |
| COc1cccc2c1C(=O)c1c(O)c3c(c(O)c1C2=O)CC(O)(C(C)=NNC(=O)CO)CC3OC1CC(N)C(O)C(C)O1 (centres unmarked) [Cpd 298] | 78% | 93% | 81% | 69% | 0.36 | 0.21 µM | 0.74 µM | 0.92 µM | SI: selectivity index in comparison with SH-SY5Y cells, Panc-1 [1]: 24.6; SI: selectivity index in comparison with SH-SY5Y cells, U-87 MG ([2]; U-87 MG vs SH-SY5Y): 30.6; IC50 [3]: 3.06 µM; SI: selectivity index in comparison with SH-SY5Y cells, HDF [3]: 102 |
| O=C(NCCCCCCCCCCNC(=O)Nc1cccc(C2=NCCN2)c1)Nc1cccc(C2=NCCN2)c1 [Cpd 285] | 18% | 3% | 0% | 31% |  |  |  |  |  |
| N=C(N)c1ccc(OCCCCCCOc2ccc(C(=N)N)cc2I)cc1 [Cpd 304] | 88% | 73% | 64% | 68% | 0.70 | 0.61 µM | 3.85 µM | 7.27 µM | SI: selectivity index in comparison with SH-SY5Y cells, Panc-1 [1]: 2.6; IC50 [3]: 5.73 µM; SI: selectivity index in comparison with SH-SY5Y cells, HDF [3]: 15.48 |
